Assay results taken from patent US20230117470A1, “SUBSTITUTED PYRAZOLE COMPOUNDS AS TOLL RECEPTOR INHIBITORS” (BRISTOL-MYERS SQUIBB COMPANY, priority 2019, published 2023).

Assays:
Format in all cases: cell-based
human TLR7 = biological target: T1, human TLR7 (Homo sapiens, UniProt Q9NYK1); experiment: TLR7 inhibition reporter assay (HEK-Blue cells, SEAP reporter, gardiquimod stimulation); conditions: HEK-Blue cells overexpressing human TLR7, SEAP reporter, gardiquimod 7.5 μM
T1 construct: host or cells: HEK-Blue cells
T1 sequence (Q9NYK1 27-1049): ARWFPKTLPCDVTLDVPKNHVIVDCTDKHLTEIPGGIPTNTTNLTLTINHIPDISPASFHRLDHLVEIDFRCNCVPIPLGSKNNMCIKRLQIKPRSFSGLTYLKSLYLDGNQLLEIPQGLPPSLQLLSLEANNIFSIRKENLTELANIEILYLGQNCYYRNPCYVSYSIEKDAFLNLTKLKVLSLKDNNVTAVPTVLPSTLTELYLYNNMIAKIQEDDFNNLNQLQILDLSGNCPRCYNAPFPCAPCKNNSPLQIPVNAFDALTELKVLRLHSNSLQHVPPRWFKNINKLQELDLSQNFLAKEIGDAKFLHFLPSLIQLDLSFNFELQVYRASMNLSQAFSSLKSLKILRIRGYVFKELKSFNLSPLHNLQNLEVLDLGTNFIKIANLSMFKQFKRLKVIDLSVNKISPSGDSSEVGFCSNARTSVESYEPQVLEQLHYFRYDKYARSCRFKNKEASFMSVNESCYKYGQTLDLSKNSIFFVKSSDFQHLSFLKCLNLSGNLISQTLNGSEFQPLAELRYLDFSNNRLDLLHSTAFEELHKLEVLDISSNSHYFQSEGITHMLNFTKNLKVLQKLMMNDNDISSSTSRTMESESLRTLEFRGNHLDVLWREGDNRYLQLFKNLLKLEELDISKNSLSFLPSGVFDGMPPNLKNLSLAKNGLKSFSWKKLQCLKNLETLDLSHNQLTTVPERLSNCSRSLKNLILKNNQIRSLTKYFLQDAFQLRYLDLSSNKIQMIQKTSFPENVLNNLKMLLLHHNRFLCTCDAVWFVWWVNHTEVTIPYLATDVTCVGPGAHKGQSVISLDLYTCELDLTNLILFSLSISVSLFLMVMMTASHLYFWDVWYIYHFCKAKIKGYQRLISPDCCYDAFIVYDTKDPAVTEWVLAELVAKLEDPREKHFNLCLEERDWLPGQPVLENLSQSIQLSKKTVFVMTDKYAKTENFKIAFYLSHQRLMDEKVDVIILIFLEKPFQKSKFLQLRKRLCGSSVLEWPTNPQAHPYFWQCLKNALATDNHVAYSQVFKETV
How it was run: (§1)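 30 min RT cpd pre-incubation (0.05 nM–50 μM final dose response) → agonist: gardiquimod 7.5 μM / R848 15.9 μM / ODN2006 5 nM for TLR7/8/9 resp. → 22 h, 37° C → SEAP via detection medium. % inhibition vs agonist+DMSO and reference inhibitor controls.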

human TLR8 = biological target: T2, human TLR8 (Homo sapiens, UniProt Q9NR97); experiment: TLR8 inhibition reporter assay (HEK-Blue cells, SEAP reporter, R848 stimulation); conditions: HEK-Blue cells overexpressing human TLR8, SEAP reporter, R848 15.9 μM
T2 construct: host or cells: HEK-Blue cells
T2 sequence (Q9NR97 27-1041): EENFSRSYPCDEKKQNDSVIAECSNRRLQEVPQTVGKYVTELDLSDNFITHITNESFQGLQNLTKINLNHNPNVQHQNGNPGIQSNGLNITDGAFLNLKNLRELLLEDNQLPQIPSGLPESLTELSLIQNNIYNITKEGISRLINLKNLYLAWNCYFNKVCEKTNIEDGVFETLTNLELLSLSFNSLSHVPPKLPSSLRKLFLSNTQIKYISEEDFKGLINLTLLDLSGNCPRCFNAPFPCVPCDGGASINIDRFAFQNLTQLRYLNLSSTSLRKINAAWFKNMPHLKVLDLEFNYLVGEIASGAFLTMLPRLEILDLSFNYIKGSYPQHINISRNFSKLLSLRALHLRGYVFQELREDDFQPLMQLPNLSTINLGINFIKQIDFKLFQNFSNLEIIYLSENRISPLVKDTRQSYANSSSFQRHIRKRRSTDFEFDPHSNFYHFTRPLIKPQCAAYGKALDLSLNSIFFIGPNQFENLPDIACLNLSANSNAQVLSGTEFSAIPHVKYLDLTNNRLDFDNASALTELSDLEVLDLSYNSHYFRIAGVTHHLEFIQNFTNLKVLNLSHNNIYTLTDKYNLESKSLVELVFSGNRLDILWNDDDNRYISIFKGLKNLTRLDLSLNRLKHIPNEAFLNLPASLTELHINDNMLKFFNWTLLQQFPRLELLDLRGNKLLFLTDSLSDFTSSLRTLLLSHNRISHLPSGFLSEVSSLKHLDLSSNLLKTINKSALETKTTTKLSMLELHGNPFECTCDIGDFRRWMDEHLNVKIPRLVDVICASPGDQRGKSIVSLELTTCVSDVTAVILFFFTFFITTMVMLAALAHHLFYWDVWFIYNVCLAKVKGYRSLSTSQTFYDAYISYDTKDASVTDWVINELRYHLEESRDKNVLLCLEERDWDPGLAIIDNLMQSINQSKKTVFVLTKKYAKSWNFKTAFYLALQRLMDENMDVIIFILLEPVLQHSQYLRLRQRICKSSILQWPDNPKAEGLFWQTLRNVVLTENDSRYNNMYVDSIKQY
How it was run: as §1

human TLR9 = biological target: T3, human TLR9 (Homo sapiens, UniProt Q9NR96); experiment: TLR9 inhibition reporter assay (HEK-Blue cells, SEAP reporter, ODN2006 stimulation); conditions: HEK-Blue cells overexpressing human TLR9, SEAP reporter, ODN2006 5 nM
T3 construct: host or cells: HEK-Blue cells
T3 sequence (Q9NR96 26-1032): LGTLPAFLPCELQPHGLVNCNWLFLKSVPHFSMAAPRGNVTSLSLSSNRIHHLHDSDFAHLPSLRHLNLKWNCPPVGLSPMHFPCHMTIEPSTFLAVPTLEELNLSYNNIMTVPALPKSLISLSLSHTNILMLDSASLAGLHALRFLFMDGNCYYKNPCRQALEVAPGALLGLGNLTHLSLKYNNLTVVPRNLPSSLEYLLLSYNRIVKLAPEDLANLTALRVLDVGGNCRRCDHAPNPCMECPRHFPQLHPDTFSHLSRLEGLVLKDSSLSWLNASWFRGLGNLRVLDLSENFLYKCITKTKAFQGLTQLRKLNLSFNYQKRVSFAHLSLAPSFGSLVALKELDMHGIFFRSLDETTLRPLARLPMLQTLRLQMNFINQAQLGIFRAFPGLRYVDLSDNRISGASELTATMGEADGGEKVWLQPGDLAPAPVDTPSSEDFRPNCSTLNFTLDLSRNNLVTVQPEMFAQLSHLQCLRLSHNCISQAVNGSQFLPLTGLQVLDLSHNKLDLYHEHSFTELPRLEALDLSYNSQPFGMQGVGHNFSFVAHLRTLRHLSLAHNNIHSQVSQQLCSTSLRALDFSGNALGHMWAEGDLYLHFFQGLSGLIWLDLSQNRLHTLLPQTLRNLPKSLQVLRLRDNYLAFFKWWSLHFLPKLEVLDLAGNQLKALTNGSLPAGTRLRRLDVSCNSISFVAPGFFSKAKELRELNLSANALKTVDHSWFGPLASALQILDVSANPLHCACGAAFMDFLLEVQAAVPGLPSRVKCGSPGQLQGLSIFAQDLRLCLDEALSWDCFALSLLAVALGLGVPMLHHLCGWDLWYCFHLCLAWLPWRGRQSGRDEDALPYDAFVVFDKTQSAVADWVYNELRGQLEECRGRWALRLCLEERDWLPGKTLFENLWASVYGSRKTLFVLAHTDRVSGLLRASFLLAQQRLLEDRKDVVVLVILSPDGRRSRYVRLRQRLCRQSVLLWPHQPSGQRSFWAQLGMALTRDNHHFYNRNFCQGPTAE
How it was run: as §1

SMILES | IC50 (human TLR7) | IC50 (human TLR8) | IC50 (human TLR9)
CC(C)c1c(C(=O)NC2CCN(C)CC2)n[nH]c1-c1cn(C)c2ncccc12 [Example 41] | 1.19 nM | 2.66 nM | 8430 nM
CC(C)c1c(C(=O)NC2CCN(C(C)C)CC2)n[nH]c1-c1cn(C)c2ncccc12 [Example 42] | 2.99 nM | 6.77 nM | 19000 nM
Cc1cc(-c2[nH]nc(C(=O)NC3CCNCC3)c2C(C)C)cn2ncnc12 [Example 43, 4-isopropyl-5-(8-methyl-[1,2,4]triazolo[1,5-a]pyridin-6-yl)-N-(piperidin-4-yl)-1H-pyrazole-3-carboxamide] | 2.54 nM | 5.22 nM | > 50000 nM
Cc1cc(-c2[nH]nc(C(=O)NCC3CCNCC3)c2C(C)C)cn2ncnc12 [Example 45] | 1.84 nM | 19.5 nM | 45400 nM
Cc1cc(-c2[nH]nc(C(=O)N[C@H]3CC[C@H](N)CC3)c2C(C)C)cn2ncnc12 [Example 46] | 0.57 nM | 0.11 nM | 2500 nM
Cc1cc(-c2[nH]nc(C(=O)NC[C@H]3CC[C@H](N)CC3)c2C(C)C)cn2ncnc12 [Example 47] | 2.92 nM | 0.56 nM | 6840 nM
Cc1cc(-c2[nH]nc(C(=O)NCC3CNC3)c2C(C)C)cn2ncnc12 [Example 49] | 0.97 nM | 0.48 nM | 9220 nM
Cc1cc(-c2[nH]nc(C(=O)N[C@@H]3CCNC3)c2C(C)C)cn2ncnc12 [Example 50] | 1.27 nM | 2.74 nM | 17300 nM
Cc1cc(-c2[nH]nc(C(=O)NC[C@@H]3CCCN3)c2C(C)C)cn2ncnc12 [Example 51] | 1.59 nM | 1.03 nM | 8800 nM
Cc1cc(-c2[nH]nc(C(=O)N[C@@H]3CCCNC3)c2C(C)C)cn2ncnc12 [Example 52] | 2.9 nM | 4.22 nM | 18000 nM
Cc1cc(-c2[nH]nc(C(=O)N3CC[C@H](N)C3)c2C(C)C)cn2ncnc12 [Example 53] | 0.94 nM | 0.79 nM | 5070 nM
Cc1cc(-c2[nH]nc(C(=O)N[C@H]3CCCNC3)c2C(C)C)cn2ncnc12 [Example 54] | 1.1 nM | 3.74 nM | 6670 nM
Cc1cc(-c2[nH]nc(C(=O)N3CCC(N)CC3)c2C(C)C)cn2ncnc12 [Example 55] | 2.99 nM | 1.15 nM | > 50000 nM
Cc1cc(-c2[nH]nc(C(=O)N3CCNCC3)c2C(C)C)cn2ncnc12 [Example 57] | 4.24 nM | 1.34 nM | 23100 nM
Cc1cc(-c2[nH]nc(C(=O)NC3CNC3)c2C(C)C)cn2ncnc12 [Example 58] | 3.01 nM | 1.43 nM | 32800 nM
Cc1cc(-c2[nH]nc(C(=O)N3CC4CNCC4C3)c2C(C)C)cn2ncnc12 (stereo not drawn) [Example 59] | 5.83 nM | 47.2 nM | > 50000 nM
COc1cc(-c2[nH]nc(C(=O)NC3CCNCC3)c2C(C)C)cn2ncnc12 [Example 60] | 36.6 nM | 27.9 nM | > 50000 nM
Cc1cc(-c2[nH]nc(C(=O)N3CCC(CN)CC3)c2C(C)C)cn2ncnc12 [Example 61] | 22.7 nM | 5.33 nM | > 50000 nM
COc1cc(-c2[nH]nc(C(=O)NCC3CCNCC3)c2C(C)C)cn2ncnc12 [Example 62] | 88.6 nM | 22.3 nM | > 50000 nM
Cc1cc(-c2[nH]nc(C(=O)N[C@H]3CC[C@@H](N)CC3)c2C(C)C)cn2ncnc12 [Example 63] | 24.8 nM | 14.6 nM | > 50000 nM
Cc1cc(-c2[nH]nc(C(=O)NC3CCCNC3)c2C(C)C)cn2ncnc12 (stereo not drawn) [Example 66] | 3.59 nM | 16.9 nM | 5710 nM
Cc1cc(-c2[nH]nc(C(=O)NC3CCCNC3)c2C(C)C)cn2ncnc12 (stereo not drawn) [Example 67] | 12.6 nM | 12.9 nM | 2250 nM
